Tests used:
[1] = Flecainide peak plasma concentration (Cmax) versus BMI classification in atrial fibrillation patients; type: in vivo, human; settings: atrial fibrillation patients (n=81); 120 mg flecainide acetate via oral inhalation; both conversion and no conversion cohorts
Method: Logistic regression was performed to identify predictors of cardioversion success at 90 minutes post-dose, and potential interactions were examined by linear regression.
FIG. 6 is a chart depicting median Cmax versus BMI classification (normal (BMI<25), overweight (BMI≥25 and <30), obese/severe obese (BMI≥30)) in atrial fibrillation patients (n=81) administered 120 mg flecainide acetate via oral inhalation.

[2] = Solubility of flecainide acetate in water solution; type: physicochemical
[3] = system: recent-onset symptomatic AF; experiment: Clinical study: cardioversion of recent-onset atrial fibrillation to sinus rhythm with orally inhaled flecainide; type: in vivo, human; settings: 120 mg flecainide acetate (eTLD) by oral inhalation; for conversion rate (AF to sinus rhythm): cardioversion success at 90 minutes post-dose
Method: A flecainide acetate oral inhalation solution for acute cardioversion of recent-onset symptomatic AF was administered to 80 patients to determine if height, weight, and body mass index (BMI) are predictors of successful cardioversion of AF to sinus rhythm (SR) with the inhalation solution.
The flecainide formulation used in this study is described in TABLE 1.
In this study, for inhalation delivery of flecainide, an estimated total lung dose (eTLD) of 120 mg were calculated to account for losses of flecainide in the inhalation device and losses of flecainide in subjects' mouth and throat. An 120 mg eTLD was thereby used to denote the dose that actually reached the lungs of the subjects. By design, in all nebulizers there can be a residual volume or mass of drug solution that stays in the nebulizer, and there can also be a percentage of the aerosol caught by subject's throat and mouth. For instance, in this study, it was estimated that 30% of the aerosol was lost in subject's throat and mouth. Therefore the eTLD would be: eTLD=(100-30) %*amount of aerosolized drug that left nebulizer=70%*(amount of drug placed in nebulizer−amount of drug staying in nebulizer).
The AeroEclipse®II BAN inhaler was used for nebulization and inhalation of the exemplary flecainide formulations. It is available as an approved device in several countries across the world including European countries, USA, and Canada. The inhaler is a hand-held, breath actuated, jet nebulizer which operates through a source of compressed air available as medical air in the hospital ER. The AeroEclipse®BAN delivers a high respirable dose and an optimal particle size to reach the deeper lung regions to enable faster drug absorption. Flecainide acetate inhalation solution was transferred from the vial into the reservoir of the AeroEclipse®II BAN at a volume corresponding to the required dose to the lung. To administer an estimated total lung dose of […] flecainide acetate, the nebulizer was filled with 4.2 mL of Formulation A described in TABLE 1. The total volume filled in each dosing cup was based on the assumption of a 70% (v/v) lung deposition, a 12.5% (v/v) loss due to fugitive aerosol based on in-vitro experiments, and device retention of approximately 1.5 mL of the solution.
Participants in the study were administered the study medications according to the following guidelines: • Subject self-administers inhalation using the AeroEclipse® II BAN • Subject is seated upright in a comfortable chair or adjustable bed with table that has adjustable height in front (e.g. overbed table on casters) where the subject can rest his/her arms (e.g. overbed table on casters) from approximately 30 minutes prior to the start of inhalation up to at least 15 minutes after the last inhalation is completed. […]

median flecainide peak plasma concentration (Cmax) versus BMI category [1]: positive correlation | solubility [2]: ~60 mg/mL
Compound: O=C(NCC1CCCCN1)c1cc(OCC(F)(F)F)ccc1OCC(F)(F)F (stereo not drawn) [flecainide acetate]
conversion rate (AF to sinus rhythm) ([3]; obese patients (BMI≥30 and <35 kg/m^2)): 43% | conversion rate (AF to sinus rhythm) ([3]; overweight patients (BMI≥25 and <30 kg/m^2)): 47% | conversion rate (AF to sinus rhythm) ([3]; patients with normal BMI (<25 kg/m^2)): 53% | AF successfully converted to sinus rhythm ([3]; severely obese patients, 90 minutes post-dose): none

— patent US20250332152A1, “INHALED THERAPY FOR CARDIAC ARRHYTHMIA” (InCarda Therapeutics, Inc., priority 2021, published 2025)
